A melting point compilation (Tetko et al.)

Row | SMILES | melting point
1 | COc1ccc(C(c2ccc(OC)cc2)C(Cl)(Cl)Cl)cc1 | 87 °C
2 | O=C1Cc2c1ccc1ccccc21 | 72 °C
3 | C=CCNC(N)=S | 78 °C
4 | NNC(=O)c1cccnc1 | 162 °C
5 | O=Cc1ccc(N2CCCC2=O)cc1 | 121 to 122 °C
6 | CC(=O)CN1C(=O)N2CCc3ccccc3C2(c2ccc(Cl)cc2)C1=O (stereo not drawn) | 173 to 175 °C
7 | CC12CCC3C(CCC4CC(OC=O)CCC43C)C1CC=C2C#Cc1ccccc1 (stereo not drawn) | 179 to 180 °C
8 | Cc1ccc(-c2ccc(C=C3C(=O)NC(=O)NC3=O)o2)cc1 | 265 °C
9 | O=C(CCl)Nc1ccc(Cl)cc1 | 168 to 170 °C
10 | C=CC=c1c(=CC)c(O)c(C2=NNC(=O)C2=CNc2ccncc2)c(=O)n1C | 238 °C
11 | Fc1cc(Br)c(Cl)c(Br)c1 | 86 °C
12 | O=C1NCCN1c1ncc([N+](=O)[O-])s1 | 261 °C
13 | COC(=O)c1ccccc1CS(=O)(=O)NC(=O)Nc1nc(OC)cc(OC)n1 | 187 °C
14 | CC(Nc1cc(C)ccn1)=C(C#N)C(=O)c1ccccc1 | 102 to 103 °C
15 | CC12CCC(O)CC1CCC1C2CCC2(C)C1CCC21OCCO1 (stereo not drawn) | 151 °C
16 | O=C(Nc1ccccc1)OC1C=CC=CCC1OC(=O)Nc1ccccc1 (stereo not drawn) | 179 to 180 °C
17 | CC(=NCc1ccccc1)c1c(O)c2ccccc2n(-c2ccccc2)c1=O | 164 °C
18 | COC(=O)C1=C(C)NC(=S)NC1c1ccccc1 (stereo not drawn) | 224 to 225 °C
19 | O=C(CCl)NCc1ccc2c(c1)OCO2 | 91.4 to 93.8 °C
20 | CC(C)C(C(=O)O)c1ccccc1 (stereo not drawn) | 60 °C
21 | CN(C)c1ccc(/C=C(\C(N)=O)c2nc3ccccc3s2)cc1 | 210 °C

Row | SMILES | melting point
22 | Clc1cccc(-c2cccc(Cl)c2)c1 | 29 °C
23 | NS(=O)(=O)c1cc2c(s1)S(=O)(=O)CCC2=O | 242 °C
24 | Cc1cc(O)nc(N)n1 | 300 °C
25 | O=[N+]([O-])c1ccc2c(c1)-c1ccc([N+](=O)[O-])c3cccc-2c13 | 223 °C
26 | CSc1nc(N)c(C(=O)c2ccc(Cl)cc2)s1 | 148 to 150 °C
27 | O=C(Cl)c1cc(Br)cc2c1OCC2 | 126 to 127 °C
28 | CCOC(=O)c1cc(-c2ccc(Cl)cc2)oc1C=O | 188 °C
29 | CCO[P@](=O)(c1ccc(OC)cc1)N1Cc2ccccc2C[C@@H]1C(=O)NO | 167 °C
30 | Nc1nnc(SCC(=O)Nc2ccc3c(c2)OCO3)s1 | 196 to 198 °C
31 | CCNc1c(C=O)c(=O)oc2ccccc12 | 181 °C
32 | CC(=NNc1ccccc1)C(=O)c1cc(C(=O)C(C)=NNc2ccccc2)c([N+](=O)[O-])cc1[N+](=O)[O-] | 234 °C
33 | COC(=O)C=C(CCl)OC | 25 °C
34 | O=C(O)c1cc([N+](=O)[O-])cc([N+](=O)[O-])c1Cl | 199 °C
35 | CC(=O)c1ccc(CCc2ccccc2)cc1 | 68 to 70 °C
36 | CCOC(=O)C(C)C(=O)CC(O)CC1CC=C(C)C1(C)C (stereo not drawn) | 132 °C
37 | O=C(NC(Cc1ccc2ccccc2c1)C(=O)O)OCC1c2ccccc2-c2ccccc21 (stereo not drawn) | 191 °C
38 | CN(C)c1cccc2oc3c(cnn3-c3ccccc3)c(=O)c12 | 184 to 186 °C
39 | Cc1c(N)cc([N+](=O)[O-])cc1[N+](=O)[O-] | 174 °C
40 | O=C1CCCO1 | -43.3 °C
41 | CC12CCC3C(CCC4CC(=NO)CCC43C)C1CCC2O (stereo not drawn) | 198 to 199 °C
42 | OCCC(F)(F)C(F)(F)C(F)(F)C(F)(F)F | -58 °C

Row | SMILES | melting point
43 | O=c1c(Cl)c[nH]cc1Cl | 322 °C
44 | S=c1sccs1 | 49 °C
45 | CC12C(=O)OC(=O)C1(C)C1CCC2O1 (stereo not drawn) | 218 °C
46 | CC(=O)C=Cc1oc2ccc([N+](=O)[O-])cc2c1-c1ccc(C)o1 | 178 °C
47 | COc1ncccc1N | 67 to 68 °C
48 | CC(C)(C)c1csc(-c2ccc(C=O)cc2)n1 | 106 to 107 °C
49 | N#C/C(=C\c1ccc(F)cc1)c1nc2ccccc2c(=O)[nH]1 | 305 to 306 °C
50 | N#Cc1c(F)c(F)c(F)c(F)c1C#N | 83 °C
51 | COC(=O)c1sccc1N | 66 to 67 °C
52 | O=C(O)C(F)(F)C(F)(F)C(F)(F)C(F)(F)C(F)(F)C(F)(F)C(F)(F)C(F)(F)C(F)(F)C(F)(F)C(F)(F)C(F)(F)F | 118 to 122 °C
53 | Cc1nonc1C | -7 °C
54 | C1=CCCCCC1 | -56 °C
55 | Cc1cc(C)c(C=O)c(C)c1 | 14 °C
56 | O=Cc1cc(C(=O)O)ccc1F | 152 to 153 °C
57 | O=C=NS(=O)(=O)Cl | -44 °C
58 | COc1cc(C(=O)c2ccccc2Cl)c([N+](=O)[O-])cc1OC | 122 °C
59 | NC(=O)NN=CC(=O)c1ccc(C(=O)C=NNC(N)=O)c([N+](=O)[O-])c1 | 241 °C
60 | COc1ccc2ccccc2c1CO | 100 to 104 °C
61 | CC(C)(C)NC(=S)NC(C)(C)C | 168 to 171 °C
62 | Cc1nc(-c2cccc(C=O)c2)no1 | 98 to 99 °C
63 | COC1CC1 | -119 °C

Row | SMILES | melting point
64 | O=C(C1CCNCC1)N1CCCCCC1 | 41 to 47 °C
65 | CC(C)COC(=O)c1ccccc1O | 5.9 °C
66 | CC(=O)c1ccc2ccc3cccc4ccc1c2c34 | 88 °C
67 | CC1(C)OC(=O)C2(Cc3ccccc3C2)C(=O)O1 | 158 °C
68 | Nc1cc(N)cc(C(F)(F)F)c1 | 88 to 89 °C
69 | CC(=O)/C=C1\Cc2ccccc21 | 79 to 79.6 °C
70 | Cc1c(-c2ccccc2)n(C)c2ccccc12 | 69 °C
71 | COc1ccccc1C=N/N=c1/sc(C(C)=O)nn1-c1ccccc1[N+](=O)[O-] | 178 °C
72 | CC12CCC(C(=O)Cl)(OC1=O)C2(C)C (stereo not drawn) | 66 °C
73 | C1CCC(C(C2CCCCC2)C2CCCCC2)CC1 | 48 °C
74 | Cc1ccc2nc3sc(=O)sc3nc2c1 | 170 °C
75 | COc1ccc2c(c1)C(C(=O)O)C2 (stereo not drawn) | 93 °C
76 | CC(C)OC(=O)C(C)N(C(=O)c1ccccc1)c1ccc(F)c(Cl)c1 (stereo not drawn) | 84 °C
77 | COC(=O)c1cc(C)c(Br)s1 | 35 to 37 °C
78 | O=C=Nc1cccc(C(F)(F)F)c1 | -26 °C
79 | COC(=O)c1cccc(C#N)c1 | 65 °C
80 | C=CCOC1=NS(=O)(=O)c2ccccc21 | 138 °C
81 | FC(F)(F)c1ccccc1CBr | 34 to 35 °C
82 | Cc1nc(-c2ccc(C(=O)Cl)s2)cs1 | 108 to 112 °C
83 | O=Cc1cc([N+](=O)[O-])cc([N+](=O)[O-])c1O | 72.5 °C

More lines, now with the values ahead:

Row | melting point | SMILES
84 | -13.6 °C | CC(=O)N1CCCC(C)C1 (stereo not drawn)
85 | 140 to 144 °C | CCOC(=O)c1cc2cc3c4c(c2oc1=O)CCCN4CCC3
86 | 182 °C | COC(=O)CC[C@H](N)C(=O)O
87 | 152 °C | COc1cc(C(=O)Cc2ccccc2)c([N+](=O)[O-])cc1OC
88 | 122 °C | Cc1ccc2[nH]c(C)c(C)c2c1
89 | 68 to 70 °C | NC(=S)c1ccccc1Cl
90 | 161 °C | CC(=O)Nc1cc(C(F)(F)F)cc(C(F)(F)F)c1
91 | 176 to 182 °C | CON=C(C(=O)O)c1csc(N)n1
92 | 39 to 122 °C | CCCCCc1ccc(OC(=O)c2ccc(OC(=O)c3ccc(CCCCC)cc3)cc2Cl)cc1
93 | 152 °C | O=C1c2ccccc2CC2C=CC=CC12 (stereo not drawn)
94 | 62 to 64 °C | Nc1ccc(OC(F)(F)F)cc1[N+](=O)[O-]
95 | 101 °C | ClCc1cc(Cl)cc2c1OCOC2
96 | 169 to 171 °C | CCCc1c(C(=O)O)cnn1-c1cc(Cl)cc(Cl)c1
97 | 69 °C | OCC(F)(F)C(F)(F)C(F)(F)C(F)(F)CO
98 | 146 °C | C=C1C(=O)OC2C1CCC(C)C1C=CC(=O)C12C (stereo not drawn)
99 | 152 to 154 °C | COc1cccc(OCc2ccccc2Cl)c1C#N
100 | 238 °C | CCOC(=O)/C(C#N)=C/c1ccc(-c2ccc([N+](=O)[O-])cc2)o1
101 | 267 to 268 °C | Nc1c(C=O)c(=O)oc2ccccc12
102 | 73 to 75 °C | O=C(CCl)Oc1ccc([N+](=O)[O-])cc1
103 | 43 to 44 °C | Cn1ccc2cc(Br)ccc21
104 | 35 °C | CCc1ccc(-c2ccccc2)cc1
105 | 184 to 185 °C | COC(=O)c1sc(N2CCCCC2)c(C#N)c1N
106 | 93 to 94 °C | OCc1csc2ccc(Cl)cc12

Row | melting point | SMILES
107 | -16 °C | FC(F)(F)C(F)(F)C(F)(F)C(F)(F)C(F)(F)C(F)(F)C(F)(F)C(F)(F)C(F)(F)F
108 | 67 to 69 °C | C[Si](C)(C)N([Si](C)(C)C)[Si](C)(C)C
109 | 166 to 169 °C | NC(=O)c1c(Cl)cc(C(F)(F)F)cc1Cl
110 | -70 °C | CCCCC(CC)CCl (stereo not drawn)
111 | 124 to 126 °C | O=[N+]([O-])c1ccc(Sc2ccc(N=C=S)cc2)cc1
112 | 254 °C | COc1cccc(C=C2C(=O)NN=C2c2c(O)c3ccccc3n(C)c2=O)c1
113 | 107 to 109 °C | O=C(C1CCNCC1)N1CCCCC1
114 | -24 °C | CCOC(=O)CCCCCC(=O)OCC
115 | 44 °C | C=Cc1ccc(I)cc1
116 | 74 °C | O=[N+]([O-])c1cccc2ncccc12
117 | 79 °C | COc1cc(N)c(C(c2ccc(C)o2)c2ccc(C)o2)cc1OC
118 | 52 °C | O=Cc1c(O)cc(Cl)cc1Cl
119 | 45 °C | C1=CC2(CC2)C2C1C1C=CC2C12CC2 (stereo not drawn)
120 | 71 °C | CC1CC(=O)c2cc(F)ccc2O1 (stereo not drawn)
121 | 117 °C | COC(=O)c1c(C)c2c(c(C(=O)OC)c1C)CC2=O
122 | 81.3 °C | OCc1ccc2ccccc2c1
123 | 115 °C | Cc1ccc2[nH]c(C)cc2c1
124 | 33 °C | Nc1cccc(I)c1
125 | 214 °C | CC(C)(C)N(NC(=O)c1ccccc1)C(=O)c1cc(Cl)ccc1Cl
126 | 120 °C | Cc1ccc(S(=O)(=O)Nc2ccc(Cl)cc2)cc1
127 | 55 °C | O=[N+]([O-])c1cc(C(F)(F)F)c(Cl)cc1Cl
128 | 252 °C | O=C(Nc1cc([N+](=O)[O-])ccc1C(=O)O)c1ccccc1
